The source of these data is ChEMBL document CHEMBL1938230, “6-Position optimization of tricyclic 4-quinolone-based inhibitors of glycogen synthase kinase-3β: discovery of nitrile derivatives with picomolar potency” (Bioorg Med Chem Lett, 2012).

Each structure is given as a SMILES string. ≈ marks a conversion by molar mass, not a printed value.

Series [1] addresses Serine/threonine-protein kinase 16 (Homo sapiens) (UniProt O75716). The experiment in a line: Inhibition of human MPSK1 in HL-60 cells lysate assessed as reduction of labeling of acyl-phosphate ATP probe at 100 nM. In kind it is cell-free.
The subject of a further series is Escherichia coli. In words: Antibacterial activity against Escherichia coli ATCC 8739. It counts as ADME, organism-based.
Series [2] concerns the target T1, EKC/KEOPS complex subunit TP53RK (Homo sapiens) (UniProt Q96S44).
T1 sequence (whole entry): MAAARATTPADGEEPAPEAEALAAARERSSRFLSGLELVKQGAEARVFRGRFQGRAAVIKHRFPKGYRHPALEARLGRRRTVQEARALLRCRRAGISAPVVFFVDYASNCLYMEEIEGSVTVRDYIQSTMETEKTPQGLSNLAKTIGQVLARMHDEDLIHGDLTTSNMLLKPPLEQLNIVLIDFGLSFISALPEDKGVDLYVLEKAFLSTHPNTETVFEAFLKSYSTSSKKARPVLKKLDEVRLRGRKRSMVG
In words: Inhibition of human PRPK in HL-60 cells lysate assessed as reduction of labeling of acyl-phosphate ATP probe at 100 nM. In kind it is cell-free.

Series [3] has as its target Dual specificity mitogen-activated protein kinase kinase 2 (Homo sapiens) (UniProt P36507). The experiment in a line: Inhibition of human MAP2K2 in HL-60 cells lysate assessed as reduction of labeling of acyl-phosphate ATP probe at 100 nM. It counts as cell-free.
Series [4] addresses Cyclin-dependent kinase 1 (Homo sapiens) (UniProt P06493). In words: Inhibition of human CDC2 in HL-60 cells lysate assessed as reduction of labeling of acyl-phosphate ATP probe at 100 nM. It counts as cell-free.
Series [5] has as its target T2, Serine/threonine-protein kinase Nek9 (Homo sapiens) (UniProt Q8TD19).
T2 sequence (whole entry): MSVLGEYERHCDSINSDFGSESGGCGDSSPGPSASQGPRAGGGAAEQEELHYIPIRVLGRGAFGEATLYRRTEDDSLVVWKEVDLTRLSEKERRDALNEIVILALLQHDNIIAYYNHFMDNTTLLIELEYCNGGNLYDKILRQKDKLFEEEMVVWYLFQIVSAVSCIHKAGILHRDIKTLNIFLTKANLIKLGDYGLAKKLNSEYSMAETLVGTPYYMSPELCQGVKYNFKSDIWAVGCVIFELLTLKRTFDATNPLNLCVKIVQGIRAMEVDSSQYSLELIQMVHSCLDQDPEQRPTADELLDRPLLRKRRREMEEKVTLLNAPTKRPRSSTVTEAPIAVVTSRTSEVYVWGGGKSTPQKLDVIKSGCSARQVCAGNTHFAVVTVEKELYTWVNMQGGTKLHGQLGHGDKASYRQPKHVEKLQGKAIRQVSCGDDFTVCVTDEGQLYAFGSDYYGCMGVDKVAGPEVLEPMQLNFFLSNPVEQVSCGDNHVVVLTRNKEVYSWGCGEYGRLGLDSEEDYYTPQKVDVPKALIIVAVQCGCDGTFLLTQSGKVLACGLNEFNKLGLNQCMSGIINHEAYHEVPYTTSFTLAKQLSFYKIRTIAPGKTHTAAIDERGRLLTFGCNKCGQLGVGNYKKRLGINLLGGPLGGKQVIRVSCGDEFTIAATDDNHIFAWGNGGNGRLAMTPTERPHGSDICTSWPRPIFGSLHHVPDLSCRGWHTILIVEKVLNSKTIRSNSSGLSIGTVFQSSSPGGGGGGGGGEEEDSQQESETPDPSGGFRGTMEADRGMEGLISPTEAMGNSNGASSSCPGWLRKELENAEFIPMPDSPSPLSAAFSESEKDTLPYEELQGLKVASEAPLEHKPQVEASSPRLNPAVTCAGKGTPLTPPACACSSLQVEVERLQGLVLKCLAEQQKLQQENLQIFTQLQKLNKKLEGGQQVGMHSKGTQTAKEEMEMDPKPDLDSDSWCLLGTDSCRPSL
In words: Inhibition of human NEK9 in HL-60 cells lysate assessed as reduction of labeling of acyl-phosphate ATP probe at 100 nM. It counts as cell-free.

Series [6] has as its target Phosphatidylinositol 4,5-bisphosphate 3-kinase catalytic subunit beta isoform (Homo sapiens) (UniProt P42338). The experiment in a line: Inhibition of human PIK3CB in HL-60 cells lysate assessed as reduction of labeling of acyl-phosphate ATP probe at 100 nM. It counts as cell-free.
Series [7] deals with Serine/threonine-protein kinase/endoribonuclease IRE1 (Homo sapiens) (UniProt O75460). In words: Inhibition of human IRE1 in HL-60 cells lysate assessed as reduction of labeling of acyl-phosphate ATP probe at 100 nM. It counts as cell-free.
Sequence of Serine/threonine-protein kinase/endoribonuclease IRE1 (Homo sapiens) (O75460 19-977 limits assumed): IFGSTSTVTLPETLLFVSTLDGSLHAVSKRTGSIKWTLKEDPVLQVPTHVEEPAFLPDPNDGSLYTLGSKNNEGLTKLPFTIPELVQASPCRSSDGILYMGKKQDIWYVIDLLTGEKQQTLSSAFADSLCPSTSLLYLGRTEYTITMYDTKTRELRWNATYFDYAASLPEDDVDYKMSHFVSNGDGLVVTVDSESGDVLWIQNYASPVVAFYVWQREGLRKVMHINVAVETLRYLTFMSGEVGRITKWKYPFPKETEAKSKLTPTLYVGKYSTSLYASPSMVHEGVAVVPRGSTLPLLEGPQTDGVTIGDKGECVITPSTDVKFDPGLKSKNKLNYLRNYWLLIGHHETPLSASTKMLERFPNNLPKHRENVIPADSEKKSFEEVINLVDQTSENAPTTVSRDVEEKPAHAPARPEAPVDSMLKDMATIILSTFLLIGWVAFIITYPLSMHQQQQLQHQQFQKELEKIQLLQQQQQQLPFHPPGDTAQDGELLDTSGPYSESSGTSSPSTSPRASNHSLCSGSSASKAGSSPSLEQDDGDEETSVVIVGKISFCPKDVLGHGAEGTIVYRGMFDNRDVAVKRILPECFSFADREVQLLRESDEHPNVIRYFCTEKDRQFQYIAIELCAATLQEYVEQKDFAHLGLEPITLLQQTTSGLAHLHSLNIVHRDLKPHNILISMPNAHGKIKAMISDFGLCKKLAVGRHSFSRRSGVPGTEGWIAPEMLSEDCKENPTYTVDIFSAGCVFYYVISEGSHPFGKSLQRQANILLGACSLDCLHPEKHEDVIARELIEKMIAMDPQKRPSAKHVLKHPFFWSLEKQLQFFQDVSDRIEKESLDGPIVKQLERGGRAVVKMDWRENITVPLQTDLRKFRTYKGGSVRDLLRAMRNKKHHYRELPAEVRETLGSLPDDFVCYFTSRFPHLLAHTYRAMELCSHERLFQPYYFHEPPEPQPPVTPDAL
Series [8] has as its target T3, Serine/threonine-protein kinase 3 (Homo sapiens) (UniProt Q13188).
T3 sequence (whole entry): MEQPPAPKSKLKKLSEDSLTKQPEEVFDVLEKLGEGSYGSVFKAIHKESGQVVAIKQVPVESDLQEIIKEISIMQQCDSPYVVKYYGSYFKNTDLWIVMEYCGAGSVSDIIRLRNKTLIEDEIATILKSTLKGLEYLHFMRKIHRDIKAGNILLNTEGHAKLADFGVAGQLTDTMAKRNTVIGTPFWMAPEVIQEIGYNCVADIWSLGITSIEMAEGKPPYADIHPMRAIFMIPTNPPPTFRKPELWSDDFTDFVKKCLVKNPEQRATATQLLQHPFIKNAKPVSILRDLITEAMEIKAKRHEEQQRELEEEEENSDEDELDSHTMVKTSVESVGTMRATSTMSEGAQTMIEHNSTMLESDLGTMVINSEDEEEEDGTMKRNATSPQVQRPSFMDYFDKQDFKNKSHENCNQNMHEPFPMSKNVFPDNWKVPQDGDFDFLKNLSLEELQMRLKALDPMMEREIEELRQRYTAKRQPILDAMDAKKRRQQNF
In words: Inhibition of human MST2 in HL-60 cells lysate assessed as reduction of labeling of acyl-phosphate ATP probe at 100 nM. It counts as cell-free.

Sequence of Dual specificity mitogen-activated protein kinase kinase 2 (Homo sapiens) (P36507 whole entry): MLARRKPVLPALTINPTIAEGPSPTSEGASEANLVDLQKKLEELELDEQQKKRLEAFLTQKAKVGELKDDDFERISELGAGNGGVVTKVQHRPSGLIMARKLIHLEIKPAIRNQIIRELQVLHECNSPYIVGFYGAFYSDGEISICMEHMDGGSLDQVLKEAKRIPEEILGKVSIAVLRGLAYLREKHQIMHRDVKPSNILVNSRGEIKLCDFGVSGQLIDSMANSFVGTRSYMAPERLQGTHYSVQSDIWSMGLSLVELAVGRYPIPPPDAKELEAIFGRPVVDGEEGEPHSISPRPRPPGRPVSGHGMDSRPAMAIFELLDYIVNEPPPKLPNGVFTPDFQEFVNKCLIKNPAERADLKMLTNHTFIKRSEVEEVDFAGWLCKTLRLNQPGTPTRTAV
Sequence of Serine/threonine-protein kinase 16 (Homo sapiens) (O75716 whole entry): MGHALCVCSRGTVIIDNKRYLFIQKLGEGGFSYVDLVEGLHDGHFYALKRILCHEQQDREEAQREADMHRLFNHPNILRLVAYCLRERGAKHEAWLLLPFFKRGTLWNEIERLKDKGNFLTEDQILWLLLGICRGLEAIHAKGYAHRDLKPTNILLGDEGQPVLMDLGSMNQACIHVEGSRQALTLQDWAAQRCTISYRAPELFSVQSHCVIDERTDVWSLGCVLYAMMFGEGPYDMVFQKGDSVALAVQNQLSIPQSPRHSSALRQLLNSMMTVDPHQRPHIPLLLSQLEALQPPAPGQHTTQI
Sequence of Phosphatidylinositol 4,5-bisphosphate 3-kinase catalytic subunit beta isoform (Homo sapiens) (P42338 whole entry, looked up, canonical isoform): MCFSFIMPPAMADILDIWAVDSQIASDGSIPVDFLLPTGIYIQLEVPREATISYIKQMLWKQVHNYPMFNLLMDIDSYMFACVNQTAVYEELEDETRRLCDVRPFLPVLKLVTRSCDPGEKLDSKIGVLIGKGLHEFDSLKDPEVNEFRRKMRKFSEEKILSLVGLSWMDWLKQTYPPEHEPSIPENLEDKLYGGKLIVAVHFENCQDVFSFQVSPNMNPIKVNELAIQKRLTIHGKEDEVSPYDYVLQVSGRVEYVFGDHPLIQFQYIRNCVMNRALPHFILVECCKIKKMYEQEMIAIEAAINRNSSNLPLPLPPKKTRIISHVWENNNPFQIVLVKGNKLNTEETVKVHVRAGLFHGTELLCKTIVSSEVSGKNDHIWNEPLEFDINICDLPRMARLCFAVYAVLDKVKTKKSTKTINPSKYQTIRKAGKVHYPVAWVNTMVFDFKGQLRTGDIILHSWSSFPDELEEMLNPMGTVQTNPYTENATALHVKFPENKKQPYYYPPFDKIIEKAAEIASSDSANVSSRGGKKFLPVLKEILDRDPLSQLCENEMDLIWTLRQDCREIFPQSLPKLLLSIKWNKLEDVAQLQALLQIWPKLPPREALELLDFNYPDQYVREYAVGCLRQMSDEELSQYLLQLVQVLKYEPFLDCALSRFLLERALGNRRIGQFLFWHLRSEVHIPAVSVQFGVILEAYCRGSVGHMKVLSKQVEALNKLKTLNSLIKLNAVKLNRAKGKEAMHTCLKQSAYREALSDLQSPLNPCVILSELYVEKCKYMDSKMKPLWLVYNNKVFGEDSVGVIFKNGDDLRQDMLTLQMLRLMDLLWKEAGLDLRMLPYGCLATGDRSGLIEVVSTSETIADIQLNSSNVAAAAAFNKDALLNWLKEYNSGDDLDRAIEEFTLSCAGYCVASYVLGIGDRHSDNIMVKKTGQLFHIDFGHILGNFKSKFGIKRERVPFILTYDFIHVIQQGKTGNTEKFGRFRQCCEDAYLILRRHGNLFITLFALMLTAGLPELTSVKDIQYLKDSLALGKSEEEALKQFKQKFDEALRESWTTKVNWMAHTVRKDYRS
Sequence of Cyclin-dependent kinase 1 (Homo sapiens) (P06493 whole entry, looked up): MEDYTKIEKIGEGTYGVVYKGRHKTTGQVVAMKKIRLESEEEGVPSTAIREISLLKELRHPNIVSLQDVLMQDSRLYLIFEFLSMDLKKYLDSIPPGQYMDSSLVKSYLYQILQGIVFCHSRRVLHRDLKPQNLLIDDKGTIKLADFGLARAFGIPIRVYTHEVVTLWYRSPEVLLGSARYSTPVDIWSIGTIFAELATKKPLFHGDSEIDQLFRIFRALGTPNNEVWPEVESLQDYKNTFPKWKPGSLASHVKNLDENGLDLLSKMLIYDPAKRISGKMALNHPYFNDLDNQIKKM

For orientation: inhibition means the relative decrease from the control value, in per cent. On to `C[C@H]1COc2c(NCCCc3ccccn3)c(F)c(N)c3c(=O)c(C#N)cn1c23`, for which the inhibition in series [1], in series [2], in series [3], in series [4], in series [5] and in [6] was below 35% throughout. The inhibition in series [7] and in series [8] was below 35% in each case. In addition, in the series with Escherichia coli, the MIC was above 298 µM.

On to `C[C@H]1COc2c(NCCCc3ccccn3)c(F)c(N)c3c(=O)c(C(=O)O)cn1c23`, for which the inhibition in series [1], in series [2], in series [3], in series [4], in series [5] and in [6] was below 35% throughout. For the same compound, the inhibition in series [7] and in [8] was below 35% each time. The compound also yielded an MIC against Escherichia coli of 19 µM (≈ 7.84 µg/mL).

`C[C@H]1COc2c(NCCCn3cccn3)c(F)c(N)c3c(=O)c(C(=O)O)cn1c23`: the inhibition in [1], in series [2], in series [3], in series [4], in series [5] and in [6] was below 35% throughout. Moreover, the inhibition in series [7] and in [8] was below 35% each time. The MIC against Escherichia coli is 20 µM (≈ 8.03 µg/mL).

For the compound `C[C@H]1COc2c(NCCCn3cccn3)c(F)c(N)c3c(=O)c(C#N)cn1c23`, the inhibition in [1], in [2], in [3], in series [4], in series [5] and in series [6] was below 35% each time. The inhibition in [7] and in series [8] was below 35% each time. This compound also came in with an MIC against Escherichia coli above 306 µM.
